The source of these data is patent US20230365554A1, “SUBSTITUTED PYRROLO-PYRIDINONE DERIVATIVES AND THERAPEUTIC USES THEREOF” (The Broad Institute, Inc., priority 2020, published 2023).

Sequence of wild-type Epidermal Growth Factor Receptor (EGFR) (P00533 669-1210): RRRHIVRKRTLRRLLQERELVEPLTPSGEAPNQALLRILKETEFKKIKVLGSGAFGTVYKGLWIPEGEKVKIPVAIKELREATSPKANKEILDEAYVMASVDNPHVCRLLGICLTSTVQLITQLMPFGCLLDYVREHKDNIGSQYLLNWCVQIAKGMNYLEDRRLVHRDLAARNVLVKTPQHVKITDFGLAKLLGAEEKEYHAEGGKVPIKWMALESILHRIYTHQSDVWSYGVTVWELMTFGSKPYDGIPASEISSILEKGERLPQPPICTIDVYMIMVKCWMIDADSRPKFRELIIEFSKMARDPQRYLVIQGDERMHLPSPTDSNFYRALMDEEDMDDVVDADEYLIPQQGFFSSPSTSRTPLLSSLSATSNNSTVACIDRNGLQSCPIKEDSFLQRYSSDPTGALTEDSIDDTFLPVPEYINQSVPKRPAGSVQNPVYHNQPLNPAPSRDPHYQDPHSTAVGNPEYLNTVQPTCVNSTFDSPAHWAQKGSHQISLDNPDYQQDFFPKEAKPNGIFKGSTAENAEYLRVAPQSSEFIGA

For this test, the target named is wild-type Epidermal Growth Factor Receptor (EGFR) (Homo sapiens (Human), UniProt P00533). In words: WT-EGFR kinase assay (TR-FRET, 2 mM ATP). To be noted: median or individual measurements, Table 3, read-out: EGFR Wildtyp-2mM ATP IC50 [mol/l] (median). The class given is biochemical. The text has this:
Inhibitory activity of compounds of the present invention against wild-type Epidermal Growth Factor Receptor (EGFR) was quantified employing the TR-FRET based EGFR assay as described in the following paragraphs.
Recombinant fusion protein of N-terminal Glutathion-S-Transferase (GST) and a fragment of human EGFR (amino acids R669 to A1210), expressed in Sf9 insect cells and purified via affinity chromatography using Glutathion Sepharose as described above, was used as kinase. As substrate for the kinase reaction the biotinylated peptide biotin-Ahx-AEEEEYFELVAKKK (C-terminus in amide form) was used which can be purchased e.g. form the company Biosynthan GmbH (Berlin-Buch, Germany).
For the assay 50 nl of a 100 fold concentrated solution of the test compound in DMSO was pipetted into either a black low volume 384 well microtiter plate or a black 1536 well microtiter plate (both Greiner Bio-One, Frickenhausen, Germany), 2 μL of a solution of EGFR in aqueous assay buffer [50 mM Hepes pH 7.0, 10 mM MgCl2, 1 mM dithiothreitol, 0.5 mM EGTA, 0.3 mM activated sodium ortho-vanadate, 0.005% (w/v) bovine serum albumin, 0.005% (v/v) Tween-20] were added and the mixture was incubated for 15 min at 22° C. to allow pre-binding of the test compounds to the enzyme before the start of the kinase reaction. Then the kinase reaction was started by the addition of 3 μL of a solution of adenosine-tri-phosphate (ATP, 3.33 mM=>final conc. in the 5 μL assay volume is 2 mM) and substrate (1.67 μM=>final conc. in the 5 μL assay volume is 1 μM) in assay buffer and the resulting mixture was incubated for a reaction time of 30 min at 22° C. The concentration of EGFR was adjusted depending of the activity of the enzyme lot and was chosen appropriate to have the assay in the linear range, typical concentration was 7.6 pg/μL. The reaction was stopped by the addition of 3 μL of a solution of HTRF detection reagents (83.3 nM streptavidine-XL665 [Cisbio Bioassays, Codolet, France] and 1.67 nM PT66-Tb-Cryptate, a terbium-cryptate labelled anti-phospho-tyrosine antibody from Cisbio Bioassays [instead of the PT66-Tb-cryptate PT66-Eu-Chelate from Perkin Elmer can also be used]) in an aqueous EDTA-solution (133.3 mM EDTA, 0.2% (w/v) bovine serum albumin in 50 mM HEPES pH 7.5).
The resulting mixture was incubated 1 h at 22° C. to allow the binding of the biotinylated phosphorylated peptide to the streptavidine-XL665 and the PT66-Tb-Cryptate. Subsequently the amount of phosphorylated substrate was evaluated by measurement of the resonance energy transfer from the PT66-Tb-Cryptate to the streptavidine-XL665. Therefore, the fluorescence emissions at 620 nm and 665 nm after excitation at 337 nm were measured in a HTRF reader, e.g. a Pherastar (BMG Labtechnologies, Offenburg, Germany) or a Viewlux (Perkin-Elmer). The ratio of the emissions at 665 nm and at […] was taken as the measure for the amount of phosphorylated substrate. The data were normalised (enzyme reaction without inhibitor=0% inhibition, all other assay components but no enzyme=100% inhibition).
For orientation: Time-resolved FRET reads energy transfer from a long-lived donor to a nearby acceptor.
On to `CCC1CNC(=O)c2c1[nH]c(-c1ccnc(NC(=O)Cc3ccc(F)cc3)c1)c2Nc1ccccc1` (racemic) [Example 1, N-{4-[3-anilino-7-ethyl-4-oxo-4,5,6,7-tetrahydro-1H-pyrrolo[3,2-c]pyridin-2-yl]pyridin-2-yl}-2-(4-fluorophenyl)acetamide], for which the IC50 came out at 0.057 µM.
As for `CCc1c[nH]c(=O)c2c(Nc3ccccc3)c(-c3ccnc(NC(=O)C(CC(F)F)c4ccc(F)cc4)c3)[nH]c12` (racemic) [Example 5, N-[4-(3-anilino-7-ethyl-4-oxo-4,5-dihydro-1H-pyrrolo[3,2-c]pyridin-2-yl)pyridin-2-yl]-4,4-difluoro-2-(4-fluorophenyl)butanamide], the figure is 7.3 µM.
As to `CC1CN(C)C(=O)c2c1[nH]c(-c1ccnc(NC(=O)Cc3ccc(F)cc3)c1)c2Nc1ccccc1` (racemic) [Example 6, N-{4-[3-anilino-5,7-dimethyl-4-oxo-4,5,6,7-tetrahydro-1H-pyrrolo[3,2-c]pyridin-2-yl]pyridin-2-yl}-2-(4-fluorophenyl)acetamide], the IC50 was found to be 1.4 µM.
As for `CC1CN(C)C(=O)c2c1[nH]c(-c1ccnc(NC(=O)C(C)c3ccc(F)cc3)c1)c2Nc1ccccc1` (racemic) [Example 9, N-{4-[(7RS)-3-anilino-5,7-dimethyl-4-oxo-4,5,6,7-tetrahydro-1H-pyrrolo[3,2-c]pyridin-2-yl]pyridin-2-yl}-2-(4-fluorophenyl)propanamide], the figure is 13 µM.
The same measure for `Cc1cn(C)c(=O)c2c(Nc3ccccc3)c(-c3ccnc(NC(=O)C(CC(F)F)c4ccc(F)cc4)c3)[nH]c12` (racemic) [Example 11, N-[4-(3-anilino-5,7-dimethyl-4-oxo-4,5-dihydro-1H-pyrrolo[3,2-c]pyridin-2-yl)pyridin-2-yl]-4,4-difluoro-2-(4-fluorophenyl)butanamide]: above 20 µM; for `CN1CC(CC(F)(F)F)c2[nH]c(-c3ccnc(NC(=O)Cc4ccc(F)cc4)c3)c(Nc3ccccc3)c2C1=O` (racemic) [Example 14, N-{4-[3-anilino-5-methyl-4-oxo-7-(2,2,2-trifluoroethyl)-4,5,6,7-tetrahydro-1H-pyrrolo[3,2-c]pyridin-2-yl]pyridin-2-yl}-2-(4-fluorophenyl)acetamide]: 1.1 µM.
The same measure for `CN1CC(CC2CC2)c2[nH]c(-c3ccnc(NC(=O)Cc4ccc(F)cc4)c3)c(Nc3ccccc3)c2C1=O` (racemic) [Example 18, N-{4-[3-anilino-7-(cyclopropylmethyl)-5-methyl-4-oxo-4,5,6,7-tetrahydro-1H-pyrrolo[3,2-c]pyridin-2-yl]pyridin-2-yl}-2-(4-fluorophenyl)acetamide]: 4.3 µM.
Consider `O=C1N[C@@H]2CCC[C@@H]2c2[nH]c(-c3ccnc(NC(=O)C(CC(F)F)c4ccc(F)cc4)c3)c(Nc3ccccc3)c21` (mixture of isomers) [Example 21, (2RS)—N-{4-[cis-3-anilino-4-oxo-1,4,5,5a,6,7,8,8a-octahydrocyclopenta[b]pyrrolo[2,3-d]pyridin-2-yl]pyridin-2-yl}-4,4-difluoro-2-(4-fluorophenyl)butanamide], for which the IC50 worked out at 4.5 µM.
As for `Cn1ccc2[nH]c(-c3ccnc(NC(=O)C(CC(F)F)c4ccc(F)cc4)c3)c(Nc3ccccc3)c2c1=O` (racemic) [Example 28, N-[4-(3-anilino-5-methyl-4-oxo-4,5-dihydro-1H-pyrrolo[3,2-c]pyridin-2-yl)pyridin-2-yl]-4,4-difluoro-2-(4-fluorophenyl)butanamide], the figure is 12 µM.
As for `Cc1cc2[nH]c(-c3ccnc(NC(=O)C(CC(F)F)c4ccc(F)cc4)c3)c(Nc3ccccc3F)c2c(=O)n1C` (racemic) [Example 31, 4,4-difluoro-N-{4-[3-(2-fluoroanilino)-5,6-dimethyl-4-oxo-4,5-dihydro-1H-pyrrolo[3,2-c]pyridin-2-yl]pyridin-2-yl}-2-(4-fluorophenyl)butanamide], the figure is above 20 µM.
The same measure for `Cc1cn(C)c(=O)c2c(Nc3ccccc3)c(-c3ccnc(NC(=O)C(C)c4ccc(F)cc4)c3)[nH]c12` (racemic) [Example 39, N-[4-(3-anilino-5,7-dimethyl-4-oxo-4,5-dihydro-1H-pyrrolo[3,2-c]pyridin-2-yl)pyridin-2-yl]-2-(4-fluorophenyl)propanamide]: 18 µM; for `CN1CC(CC(F)F)c2[nH]c(-c3ccnc(NC(=O)Cc4ccc(F)cc4)c3)c(Nc3ccccc3)c2C1=O` (racemic) [Example 42, N-{4-[3-anilino-7-(2,2-difluoroethyl)-5-methyl-4-oxo-4,5,6,7-tetrahydro-1H-pyrrolo[3,2-c]pyridin-2-yl]pyridin-2-yl}-2-(4-fluorophenyl)acetamide]: 1.1 µM.
For `CN1CC(CC(F)(F)F)c2[nH]c(-c3ccnc(NC(=O)Cc4ccc(F)cc4)c3)c(Nc3cscn3)c2C1=O` (racemic) [Example 46, 2-(4-fluorophenyl)-N-{4-[(7RS)-5-methyl-4-oxo-3-(1,3-thiazol-4-ylamino)-7-(2,2,2-trifluoroethyl)-4,5,6,7-tetrahydro-1H-pyrrolo[3,2-c]pyridin-2-yl]pyridin-2-yl}acetamide], the IC50 is above 20 µM.
`CN1CC(CC2CC2)c2[nH]c(-c3ccnc(NC(=O)Cc4ccc(F)cc4)c3)c(Nc3cscn3)c2C1=O` (racemic) [Example 49, N-{4-[(7RS)-7-(cyclopropylmethyl)-5-methyl-4-oxo-3-(1,3-thiazol-4-ylamino)-4,5,6,7-tetrahydro-1H-pyrrolo[3,2-c]pyridin-2-yl]pyridin-2-yl}-2-(4-fluorophenyl)acetamide]: the IC50 is above 20 µM.
The same measure for `CN1CC(CC(F)(F)F)c2[nH]c(-c3ccnc(NC(=O)C(CC(F)F)c4ccc(F)cc4)c3)c(Nc3cscn3)c2C1=O` (racemic) [Example 52, (2RS)-4,4-difluoro-2-(4-fluorophenyl)-N-{4-[(7RS)-5-methyl-4-oxo-3-[(1,3-thiazol-4-yl)amino]-7-(2,2,2-trifluoroethyl)-4,5,6,7-tetrahydro-1H-pyrrolo[3,2-c]pyridin-2-yl]pyridin-2-yl}butanamide]: above 20 µM; for `CCC1CNC(=O)c2c1[nH]c(-c1ccnc(NC(=O)Cc3ccc(F)cc3)c1)c2Nc1ccccc1` (single isomer, unassigned) [Example 2, N-{4-[3-anilino-7-ethyl-4-oxo-4,5,6,7-tetrahydro-1H-pyrrolo[3,2-c]pyridin-2-yl]pyridin-2-yl}-2-(4-fluorophenyl)acetamide]: 0.19 µM.
The same measure for `CCC1CNC(=O)c2c1[nH]c(-c1ccnc(NC(=O)Cc3ccc(F)cc3)c1)c2Nc1ccccc1` (single isomer, unassigned) [Example 3, N-{4-[3-anilino-7-ethyl-4-oxo-4,5,6,7-tetrahydro-1H-pyrrolo[3,2-c]pyridin-2-yl]pyridin-2-yl}-2-(4-fluorophenyl)acetamide]: 0.32 µM; for `Cc1cn(C)c(=O)c2c(Nc3ccccc3)c(-c3ccnc(NC(=O)C(CC(F)F)c4ccc(F)cc4)c3)[nH]c12` (single isomer, unassigned) [Example 12, N-[4-(3-anilino-5,7-dimethyl-4-oxo-4,5-dihydro-1H-pyrrolo[3,2-c]pyridin-2-yl)pyridin-2-yl]-4,4-difluoro-2-(4-fluorophenyl)butanamide]: above 20 µM.
